Measured values taken from the supplement of paper PMC10307832.

Columns and labels:
Experiment in all cases: relative viability (nuclei count vs DMSO), 5 days (fraction); higher = more cells survive
[1] = compound: C[C@@H](Oc1cc(-c2cnn(C3CCNCC3)c2)cnc1N)c1c(Cl)ccc(F)c1Cl [Crizotinib] + Nc1nc2[nH]cc(CCc3ccc(C(=O)N[C@@H](CCC(=O)O)C(=O)O)cc3)c2c(=O)[nH]1 [Pemetrexed] (partner 0.2 µM)
Outline: (§1)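 The day after seeding in 1536-well plates, lung cancer cell lines were treated by pin tool with a single drug, or with a fixed anchor-drug dose together with five library-drug doses (not always all listed) in √10 steps. After 5 days, a combined fix-and-stain solution (final 0.05% Triton X-100, 1% formaldehyde, 1 ug/ml Hoechst) was added. Nuclei counted on 4× images gave relative viability as treated counts over vehicle counts, reported as the median of duplicate plates.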

[2] = compound: O=C(c1cc(Cc2n[nH]c(=O)c3ccccc23)ccc1F)N1CCN(C(=O)C2CC2)CC1 [Olaparib] + Nc1nc2[nH]cc(CCc3ccc(C(=O)N[C@@H](CCC(=O)O)C(=O)O)cc3)c2c(=O)[nH]1 [Pemetrexed] (partner 0.2 µM)
Outline: as §1

[3] = compound: CC(C)C[C@H](NC(=O)[C@H](CCc1ccccc1)NC(=O)CN1CCOCC1)C(=O)N[C@@H](Cc1ccccc1)C(=O)N[C@@H](CC(C)C)C(=O)[C@@]1(C)CO1 [Carfilzomib] + Cc1nc(NC(=O)N2CCC[C@H]2C(N)=O)sc1-c1ccnc(C(C)(C)C(F)(F)F)c1 [Alpelisib] (partner 2 µM)
Outline: as §1

[4] = compound: C[C@@H](Oc1cc(-c2cnn(C3CCNCC3)c2)cnc1N)c1c(Cl)ccc(F)c1Cl [Crizotinib] + CC(=O)c1c(C)c2cnc(Nc3ccc(N4CCNCC4)cn3)nc2n(C2CCCC2)c1=O [Palbociclib] (partner 0.5 µM)
Outline: as §1

Cell Line	relative viability ([1]; first compound 0.01 µM)	relative viability ([1]; first compound 0.03162 µM)	relative viability ([1]; first compound 0.1 µM)	relative viability ([1]; first compound 0.3162 µM)	relative viability ([1]; first compound 1 µM)	relative viability ([2]; first compound 0.08 µM)	relative viability ([2]; first compound 0.253 µM)	relative viability ([2]; first compound 2.53 µM)	relative viability ([2]; first compound 8 µM)	relative viability ([3]; first compound 0.003162 µM)	relative viability ([3]; first compound 0.01 µM)	relative viability ([3]; first compound 0.03162 µM)	relative viability ([3]; first compound 0.1 µM)	relative viability ([4]; first compound 0.01 µM)	relative viability ([4]; first compound 0.03162 µM)	relative viability ([4]; first compound 0.1 µM)	relative viability ([4]; first compound 0.3162 µM)	relative viability ([4]; first compound 1 µM)	relative viability ([3]; first compound 0.001 µM)
LK-2	0.276	0.188	0.246	0.166	0.236	0.298	0.304	0.257	0.327	1.59	1.1	0.263	0.255	0.65	0.691	0.596	0.609	0.534	
LOU-NH91	0.35	0.368	0.383	0.396	0.383	0.389	0.366	0.381	0.343	0.742	0.662	0.307	0.267	0.583	0.534	0.516	0.533	0.5	0.702
LU99A	0.165	0.167	0.173	0.142	0.173	0.187	0.212	0.161	0.148	0.543	0.49	0.198	0.148	0.411	0.407	0.384	0.42	0.357	0.503
LXF-289	0.807	0.939	0.788	0.736		1	0.883	0.963	1	1.07	0.979	0.0883	0.0581	0.583	0.591	0.626	0.569	0.582	1.06
NCI-H23	0.489	0.591	0.567		0.812	0.756	0.614	0.654	0.473	0.84	0.857	0.207	0.112	0.343	0.504	0.53		0.536	0.741
NCI-H322M		0.656	0.593	0.649	0.656	0.607	0.608	0.619	0.544	0.757	0.365	0.748	0.509		0.486	0.465	0.53	0.447	0.796
NCI-H358	0.174	0.168	0.172	0.18	0.173	0.159	0.172	0.176	0.152	1.19	0.85	0.153	0.13	0.127	0.14	0.184	0.127	0.126	1.21
NCI-H441	0.25	0.265	0.292	0.246	0.237	0.28	0.279	0.287	0.239	0.842	0.2	0.102	0.15	0.207	0.267	0.212	0.188	0.2	0.946
NCI-H460	0.0615	0.0628	0.0607	0.0596	0.0647	0.055	0.0542	0.0654	0.0663	0.462	0.538	0.101	0.0126	0.213	0.194	0.175	0.166	0.177	0.556
NCI-H520	0.564	0.626	0.644	0.789	0.756	0.866	0.646	0.604	0.458	0.951	0.574	0.138	0.137	0.24	0.24	0.205	0.204	0.195	1.11
NCI-H647	0.162	0.188	0.146	0.177	0.186	0.193	0.156	0.138	0.15	1.19	0.71	0.025	0.0242	0.358	0.421	0.368	0.404	0.526	1.14
NCI-H650	1.09	0.907	0.956		0.984	0.912	0.901	0.871	0.776	1.3	1.21	1.09	0.164	0.346	0.32	0.352		0.375	1.09
NCI-H661	0.82	0.939	0.854	1	0.904	0.954	0.871	0.901	0.795	0.93	0.495	0.615	0.181	0.376	0.425	0.44	0.435	0.423	0.778
NCI-H838	0.214	0.237	0.253	0.265	0.24	0.25	0.226	0.239	0.246	1.09	1.06	0.992	0.122	0.178	0.248	0.225	0.239	0.236	0.979
NCI-H1355	0.998	0.928	1.08	0.976	1.07	1.04	1.01	1.05	1.08	0.767	0.737	0.584	0.139	0.415	0.378	0.387	0.406	0.406	0.753
NCI-H1395	0.91		0.888	0.731	0.88	0.8	0.565	0.564	0.497	1.27	1.19	0.335	0.356	0.608	0.593	0.625	0.596	0.643	0.995
NCI-H1437	0.338	0.3	0.319	0.314	0.325	0.345	0.3	0.32	0.325	1.01	0.943	0.54	0.101	0.283	0.328	0.302	0.309	0.356	0.982
